From ChEMBL document CHEMBL1201862, “PubChem BioAssay data set” (2004)
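These data come from cells grown in 96-well plates and exposed to compound for 48 hours at five concentrations. GI50: concentration for 50% inhibition of growth.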 Active and inactive are the calls of the source. No stated cut-off is given here; in the data, active = GI50 up to about 1.1 µM and inactive = higher.

Experiments:
Experiment in all cases: inhibition of tumour cell growth, NCI panel, 48 h
[1] = system: UO-31
[2] = system: K562
[3] = system: 786-0
[4] = system: U-251
[5] = system: RPMI-8226
[6] = system: SF-295
[7] = system: SK-MEL-2
[8] = system: SNB-19
[9] = system: NCI-H522
[10] = system: PC-3
[11] = system: UACC-257
[12] = system: MDA-MB-231
[13] = system: A549
[14] = system: CCRF-CEM
[15] = system: SW-620
[16] = system: M14
[17] = system: EKVX
[18] = system: HOP-92
[19] = system: IGROV-1
[20] = system: HL-60
[21] = system: COLO 205
[22] = system: LOX IMVI
[23] = system: HCT-15
[24] = system: SK-MEL-28
[25] = system: SF-268
[26] = system: OVCAR-5
[27] = system: NCI/ADR-RES
[28] = system: A498
[29] = system: DU-145
[30] = system: ACHN
[31] = system: SR
[32] = system: OVCAR-3
[33] = system: Hs-578T
[34] = system: HCC 2998
[35] = system: KM12
[36] = system: HCT-116
[37] = system: NCI-H460
[38] = system: BT-549
[39] = system: MCF7
[40] = system: SF-539
[41] = system: RXF 393
[42] = system: OVCAR-4
[43] = system: CAKI-1
[44] = system: SK-OV-3
[45] = system: SNB-75
[46] = system: MOLT-4
[47] = system: OVCAR-8
[48] = system: SK-MEL-5
[49] = system: HT-29
[50] = system: MDA-N
[51] = system: Malme-3M
[52] = system: HOP-62
[53] = system: SN12C
[54] = system: MDA-MB-435
[55] = system: T47D
[56] = system: TK-10
[57] = system: UACC-62
[58] = system: NCI-H23
[59] = system: NCI-H226

With `Cc1csc2c(P(=O)(OC(C)C)OC(C)C)c(-c3ccccc3)cn12` the GI50 [1] was 15.3 µM (inactive), the GI50 [2] was 17.6 µM (inactive) and the GI50 [3] was 15.7 µM (inactive). For the same molecule, the GI50 [4] was 16 µM (inactive), the GI50 [5] was 16.3 µM (inactive) and the GI50 [6] was 16.9 µM (inactive). The GI50 [7] was 16 µM (inactive), the GI50 [8] was 15.1 µM (inactive) and the GI50 [9] was 15.3 µM (inactive). The GI50 [10] was 14.8 µM (inactive), the GI50 [11] was 14 µM (inactive) and the GI50 [12] was 17 µM (inactive). For the same molecule, the GI50 [13] was 16.6 µM (inactive), the GI50 [14] was 16.7 µM (inactive) and the GI50 [15] was 18.3 µM (inactive). The GI50 [16] was 18.4 µM (inactive), the GI50 [17] was 17.2 µM (inactive) and the GI50 [18] was 16.7 µM (inactive). The GI50 [19] was 15.4 µM (inactive), the GI50 [20] was 19 µM (inactive) and the GI50 [21] was 18.7 µM (inactive). For the same molecule, the GI50 [22] was 13.6 µM (inactive), the GI50 [23] was 15.9 µM and the GI50 [24] was 17.7 µM (inactive). For the same molecule, the GI50 [25] was 16.6 µM (inactive), the GI50 [26] was 14.6 µM (inactive) and the GI50 [27] was 18 µM (inactive). For the same molecule, the GI50 [28] was 18.7 µM (inactive), the GI50 [29] was 18.5 µM (inactive) and the GI50 [30] was 15 µM (inactive). For the same molecule, the GI50 [31] was 16.6 µM (inactive), the GI50 [32] was 14.4 µM (inactive) and the GI50 [33] was 17.1 µM (inactive). For the same molecule, the GI50 [34] was 14.6 µM (inactive), the GI50 [35] was 16.8 µM (inactive) and the GI50 [36] was 14.2 µM (inactive). For the same molecule, the GI50 [37] was 16.5 µM (inactive), the GI50 [38] was 18.8 µM (inactive) and the GI50 [39] was 17.7 µM (inactive). For the same molecule, the GI50 [40] was 18.3 µM (inactive), the GI50 [41] was 17.5 µM (inactive) and the GI50 [42] was 17.5 µM (inactive). The GI50 [43] was 18.2 µM (inactive), the GI50 [44] was 18.5 µM (inactive) and the GI50 [45] was 14.5 µM (inactive). The GI50 [46] was 13 µM (inactive), the GI50 [47] was 17.4 µM (inactive) and the GI50 [48] was 16.2 µM (inactive). The GI50 [49] was 15.6 µM (inactive), the GI50 [50] was 17.9 µM (inactive) and the GI50 [51] was 19.9 µM (inactive). For the same molecule, the GI50 [52] was 18.2 µM (inactive), the GI50 [53] was 17.1 µM (inactive) and the GI50 [54] was 21.5 µM (inactive). The GI50 [55] was 3.84 µM (inactive), the GI50 [56] was 11.5 µM (inactive) and the GI50 [57] was 6.62 µM (inactive). For the same molecule, the GI50 [58] was 19.1 µM (inactive).
With `CN(C(=O)C12C3C4C1C1C2C3C41C(=O)O)C(C)(C)C` (stereo unspecified) the GI50 [1] was > 100 µM (inactive), the GI50 [2] was > 100 µM (inactive) and the GI50 [3] was > 100 µM (inactive). The GI50 [4] was > 100 µM (inactive), the GI50 [6] was > 100 µM (inactive) and the GI50 [7] was > 100 µM (inactive). The GI50 [8] was > 100 µM (inactive), the GI50 [9] was > 100 µM (inactive) and the GI50 [10] was > 100 µM (inactive). For the same molecule, the GI50 [11] was > 100 µM (inactive), the GI50 [12] was > 100 µM (inactive) and the GI50 [13] was > 100 µM (inactive). The GI50 [14] was > 100 µM (inactive), the GI50 [15] was > 100 µM (inactive) and the GI50 [16] was > 100 µM (inactive). The GI50 [17] was > 100 µM (inactive), the GI50 [18] was > 100 µM (inactive) and the GI50 [19] was > 100 µM (inactive). The GI50 [20] was > 100 µM (inactive), the GI50 [21] was > 100 µM (inactive) and the GI50 [22] was > 100 µM (inactive). For the same molecule, the GI50 [23] was > 100 µM, the GI50 [24] was > 100 µM (inactive) and the GI50 [25] was > 100 µM (inactive). The GI50 [26] was > 100 µM (inactive), the GI50 [27] was > 100 µM (inactive) and the GI50 [28] was > 100 µM (inactive). For the same molecule, the GI50 [29] was > 100 µM (inactive), the GI50 [30] was > 100 µM (inactive) and the GI50 [31] was > 100 µM (inactive). The GI50 [32] was > 100 µM (inactive), the GI50 [33] was > 100 µM (inactive) and the GI50 [34] was > 100 µM (inactive). The GI50 [35] was > 100 µM (inactive), the GI50 [36] was > 100 µM (inactive) and the GI50 [37] was > 100 µM (inactive). The GI50 [38] was > 100 µM (inactive), the GI50 [39] was > 100 µM (inactive) and the GI50 [40] was > 100 µM (inactive). The GI50 [41] was > 100 µM (inactive), the GI50 [42] was > 100 µM (inactive) and the GI50 [43] was > 100 µM (inactive). For the same molecule, the GI50 [45] was > 100 µM (inactive), the GI50 [46] was > 100 µM (inactive) and the GI50 [47] was > 100 µM (inactive). The GI50 [48] was > 100 µM (inactive), the GI50 [49] was > 100 µM (inactive) and the GI50 [50] was > 100 µM (inactive). The GI50 [52] was > 100 µM (inactive), the GI50 [53] was > 100 µM (inactive) and the GI50 [54] was > 100 µM (inactive). For the same molecule, the GI50 [55] was > 100 µM (inactive), the GI50 [56] was > 100 µM (inactive) and the GI50 [57] was > 100 µM (inactive). For the same molecule, the GI50 [58] was > 100 µM (inactive).
For `CN1CC(c2ccccc2)C(O)(C2(c3ccccc3)CN(C)CC(c3ccccc3)C2=O)C(c2ccccc2)C1` (stereo unspecified), the GI50 [1] was > 100 µM (inactive), the GI50 [2] was > 100 µM (inactive) and the GI50 [3] was > 100 µM (inactive). For the same molecule, the GI50 [4] was > 100 µM (inactive), the GI50 [5] was > 100 µM (inactive) and the GI50 [6] was 55.2 µM (inactive). The GI50 [7] was > 100 µM (inactive), the GI50 [8] was > 100 µM (inactive) and the GI50 [9] was > 100 µM (inactive). The GI50 [10] was > 100 µM (inactive), the GI50 [11] was > 100 µM (inactive) and the GI50 [12] was > 100 µM (inactive). The GI50 [13] was > 100 µM (inactive), the GI50 [15] was > 100 µM (inactive) and the GI50 [16] was > 100 µM (inactive). For the same molecule, the GI50 [17] was > 100 µM (inactive), the GI50 [18] was 50.1 µM (inactive) and the GI50 [19] was > 100 µM (inactive). The GI50 [20] was 22.4 µM (inactive), the GI50 [21] was 93.3 µM (inactive) and the GI50 [22] was > 100 µM (inactive). The GI50 [23] was > 100 µM, the GI50 [24] was > 100 µM (inactive) and the GI50 [25] was > 100 µM (inactive). The GI50 [26] was > 100 µM (inactive), the GI50 [27] was > 100 µM (inactive) and the GI50 [28] was 91.2 µM (inactive). For the same molecule, the GI50 [29] was > 100 µM (inactive), the GI50 [30] was > 100 µM (inactive) and the GI50 [31] was > 100 µM (inactive). The GI50 [32] was > 100 µM (inactive), the GI50 [33] was 23.1 µM (inactive) and the GI50 [35] was > 100 µM (inactive). The GI50 [36] was 75.3 µM (inactive), the GI50 [37] was 45.8 µM (inactive) and the GI50 [38] was > 100 µM (inactive). The GI50 [39] was > 100 µM (inactive), the GI50 [40] was > 100 µM (inactive) and the GI50 [42] was > 100 µM (inactive). The GI50 [43] was > 100 µM (inactive), the GI50 [59] was > 100 µM (inactive) and the GI50 [46] was > 100 µM (inactive). The GI50 [47] was > 100 µM (inactive), the GI50 [48] was > 100 µM (inactive) and the GI50 [49] was > 100 µM (inactive). For the same molecule, the GI50 [50] was > 100 µM (inactive), the GI50 [52] was 77.1 µM (inactive) and the GI50 [53] was > 100 µM (inactive). The GI50 [54] was > 100 µM (inactive), the GI50 [55] was > 100 µM (inactive) and the GI50 [56] was > 100 µM (inactive). The GI50 [57] was > 100 µM (inactive) and the GI50 [58] was > 100 µM (inactive).
